Bounds are passed on as bounds.

The first assay concerns HeLa. Kind of assay: Cytotoxicity against human HeLa cells after 48 hrs by MTT assay. In kind it is functional, cell-based.
Conditions: not given
Turning to `CCOC(=O)[C@]1(C)CCC[C@@]2(C)[C@@H]3CC[C@@]4(C)C[C@]3(CC[C@@H]21)[C@@H]1CON(C(=S)Nc2c(C)cccc2C)[C@@H]14`, the half-maximal inhibitory concentration (IC50) was over 50 µM.

In the case of `CCOC(=O)[C@]1(C)CCC[C@@]2(C)[C@@H]3CC[C@@]4(C)C[C@]3(CC[C@@H]21)c1cn(C(=S)Nc2c(C)cccc2C)nc14`, the half-inhibitory concentration (IC50) worked out at 49 µM.

In the case of `CCOC(=O)[C@]1(C)CCC[C@@]2(C)[C@@H]3CC[C@@]4(C)C[C@]3(CC[C@@H]21)[C@@H]1CON(C(=S)Nc2ccccc2Cl)[C@@H]14`, the IC50 was over 50 µM.

The molecule `CCOC(=O)[C@]1(C)CCC[C@@]2(C)[C@@H]3CC[C@@]4(C)C[C@]3(CC[C@@H]21)c1cn(C(=S)Nc2ccc(F)cc2)nc14` came in with an IC50 of 13.3 µM.

In turn, `CCOC(=O)[C@]1(C)CCC[C@@]2(C)[C@@H]3CC[C@@]4(C)C[C@]3(CC[C@@H]21)[C@@H]1CON(C(=S)Nc2ccc(Cl)cc2Cl)[C@@H]14` displayed an IC50 of over 50 µM.

For `CCOC(=O)[C@]1(C)CCC[C@@]2(C)[C@@H]3CC[C@@]4(C)C[C@]3(CC[C@@H]21)c1cn(C(=S)Nc2ccccc2)nc14`, the IC50 was 27.1 µM.

For `CCOC(=O)[C@]1(C)CCC[C@@]2(C)[C@@H]3CC[C@@]4(C)C[C@]3(CC[C@@H]21)c1cn(C(=S)Nc2ccccc2[N+](=O)[O-])nc14`, 36.9 µM corresponded to half-maximal inhibition (IC50).

For the molecule `CCOC(=O)[C@]1(C)CCC[C@@]2(C)[C@@H]3CC[C@@]4(C)C[C@]3(CC[C@@H]21)[C@@H]1CON(C(=S)Nc2cccc([N+](=O)[O-])c2)[C@@H]14`, the 50% inhibitory concentration (IC50) was over 50 µM.

`CCOC(=O)[C@]1(C)CCC[C@@]2(C)[C@@H]3CC[C@@]4(C)C[C@]3(CC[C@@H]21)[C@@H]1CON(C(=S)Nc2cccc(F)c2)[C@@H]14` returned an IC50 of over 50 µM.

Regarding `CCOC(=O)[C@]1(C)CCC[C@@]2(C)[C@@H]3CC[C@@]4(C)C[C@]3(CC[C@@H]21)[C@@H]1CON(C(=S)Nc2ccc(Cl)cc2)[C@@H]14`, the 50% inhibitory concentration (IC50) was over 50 µM.

The subject of the next assay is Raji. In words: Cytotoxicity against human Raji cells after 48 hrs by MTT assay. In kind it is functional, cell-based.
Conditions: not given
In general terms: Tetrazolium assays rely on reduction of a dye to a coloured formazan, in cell work by metabolically active cells.
With `CCOC(=O)[C@]1(C)CCC[C@@]2(C)[C@@H]3CC[C@@]4(C)C[C@]3(CC[C@@H]21)[C@@H]1CON(C(=S)Nc2c(C)cccc2C)[C@@H]14`, the half-inhibitory concentration (IC50) came to 19.7 µM.

In the case of `CCOC(=O)[C@]1(C)CCC[C@@]2(C)[C@@H]3CC[C@@]4(C)C[C@]3(CC[C@@H]21)c1cn(C(=S)Nc2c(C)cccc2C)nc14`, the IC50 came out at 12.1 µM.

Turning to `CCOC(=O)[C@]1(C)CCC[C@@]2(C)[C@@H]3CC[C@@]4(C)C[C@]3(CC[C@@H]21)[C@@H]1CON(C(=S)Nc2ccccc2Cl)[C@@H]14`, the IC50 came out at 35.6 µM.

With `CCOC(=O)[C@]1(C)CCC[C@@]2(C)[C@@H]3CC[C@@]4(C)C[C@]3(CC[C@@H]21)c1cn(C(=S)Nc2ccc(F)cc2)nc14`, the IC50 came to 17.7 µM.

On to `CCOC(=O)[C@]1(C)CCC[C@@]2(C)[C@@H]3CC[C@@]4(C)C[C@]3(CC[C@@H]21)[C@@H]1CON(C(=S)Nc2ccc(Cl)cc2Cl)[C@@H]14`, for which inhibition was half-maximal at 21.9 µM (IC50).

In the case of `CCOC(=O)[C@]1(C)CCC[C@@]2(C)[C@@H]3CC[C@@]4(C)C[C@]3(CC[C@@H]21)c1cn(C(=S)Nc2ccccc2)nc14`, the IC50 worked out at 18.9 µM.

For the molecule `CCOC(=O)[C@]1(C)CCC[C@@]2(C)[C@@H]3CC[C@@]4(C)C[C@]3(CC[C@@H]21)c1cn(C(=S)Nc2ccccc2[N+](=O)[O-])nc14`, the 50% inhibitory concentration (IC50) was determined as 19.6 µM.

Turning to `CCOC(=O)[C@]1(C)CCC[C@@]2(C)[C@@H]3CC[C@@]4(C)C[C@]3(CC[C@@H]21)[C@@H]1CON(C(=S)Nc2cccc([N+](=O)[O-])c2)[C@@H]14`, the IC50 was over 50 µM.

On to `CCOC(=O)[C@]1(C)CCC[C@@]2(C)[C@@H]3CC[C@@]4(C)C[C@]3(CC[C@@H]21)[C@@H]1CON(C(=S)Nc2cccc(F)c2)[C@@H]14`, for which the IC50 came out at 36.4 µM.

With `CCOC(=O)[C@]1(C)CCC[C@@]2(C)[C@@H]3CC[C@@]4(C)C[C@]3(CC[C@@H]21)[C@@H]1CON(C(=S)Nc2ccc(Cl)cc2)[C@@H]14`, the half-maximal inhibitory concentration (IC50) is over 50 µM.

The test system of another assay is A549. In words: Cytotoxicity against human A549 cells after 48 hrs by MTT assay. In kind it is functional, cell-based. The note with it: A549, 48 h.
`CCOC(=O)[C@]1(C)CCC[C@@]2(C)[C@@H]3CC[C@@]4(C)C[C@]3(CC[C@@H]21)[C@@H]1CON(C(=S)Nc2c(C)cccc2C)[C@@H]14`: the midpoint of inhibition, the IC50, lay at 41.6 µM.

On to `CCOC(=O)[C@]1(C)CCC[C@@]2(C)[C@@H]3CC[C@@]4(C)C[C@]3(CC[C@@H]21)c1cn(C(=S)Nc2c(C)cccc2C)nc14`, for which the half-inhibitory concentration (IC50) is over 50 µM.

The molecule `CCOC(=O)[C@]1(C)CCC[C@@]2(C)[C@@H]3CC[C@@]4(C)C[C@]3(CC[C@@H]21)[C@@H]1CON(C(=S)Nc2ccccc2Cl)[C@@H]14` yielded a concentration for half-maximal inhibition (IC50) of over 50 µM.

Turning to `CCOC(=O)[C@]1(C)CCC[C@@]2(C)[C@@H]3CC[C@@]4(C)C[C@]3(CC[C@@H]21)c1cn(C(=S)Nc2ccc(F)cc2)nc14`, the 50% inhibitory concentration (IC50) amounted to 33.5 µM.

`CCOC(=O)[C@]1(C)CCC[C@@]2(C)[C@@H]3CC[C@@]4(C)C[C@]3(CC[C@@H]21)[C@@H]1CON(C(=S)Nc2ccc(Cl)cc2Cl)[C@@H]14`: 43.2 µM corresponded to half-maximal inhibition (IC50).

As to `CCOC(=O)[C@]1(C)CCC[C@@]2(C)[C@@H]3CC[C@@]4(C)C[C@]3(CC[C@@H]21)c1cn(C(=S)Nc2ccccc2)nc14`, the half-maximal inhibitory concentration (IC50) turned out to be 17.6 µM.

The molecule `CCOC(=O)[C@]1(C)CCC[C@@]2(C)[C@@H]3CC[C@@]4(C)C[C@]3(CC[C@@H]21)c1cn(C(=S)Nc2ccccc2[N+](=O)[O-])nc14` showed a half-maximal inhibitory concentration (IC50) of 38.3 µM.

Regarding `CCOC(=O)[C@]1(C)CCC[C@@]2(C)[C@@H]3CC[C@@]4(C)C[C@]3(CC[C@@H]21)[C@@H]1CON(C(=S)Nc2cccc([N+](=O)[O-])c2)[C@@H]14`, the half-inhibitory concentration (IC50) was over 50 µM.

Consider `CCOC(=O)[C@]1(C)CCC[C@@]2(C)[C@@H]3CC[C@@]4(C)C[C@]3(CC[C@@H]21)[C@@H]1CON(C(=S)Nc2cccc(F)c2)[C@@H]14`, for which the IC50 is over 50 µM.

Molecule `CCOC(=O)[C@]1(C)CCC[C@@]2(C)[C@@H]3CC[C@@]4(C)C[C@]3(CC[C@@H]21)[C@@H]1CON(C(=S)Nc2ccc(Cl)cc2)[C@@H]14` came in with a half-inhibitory concentration (IC50) of over 50 µM.

In a further assay the test system is SGC-7901. In words: Cytotoxicity against human SGC7901 cells after 48 hrs by MTT assay. In kind it is functional, cell-based. The note with it: SGC-7901, 48 h.
Molecule `CCOC(=O)[C@]1(C)CCC[C@@]2(C)[C@@H]3CC[C@@]4(C)C[C@]3(CC[C@@H]21)[C@@H]1CON(C(=S)Nc2c(C)cccc2C)[C@@H]14` had an IC50 of 27.4 µM.

`CCOC(=O)[C@]1(C)CCC[C@@]2(C)[C@@H]3CC[C@@]4(C)C[C@]3(CC[C@@H]21)c1cn(C(=S)Nc2c(C)cccc2C)nc14` gave an IC50 of 14.8 µM.

With `CCOC(=O)[C@]1(C)CCC[C@@]2(C)[C@@H]3CC[C@@]4(C)C[C@]3(CC[C@@H]21)[C@@H]1CON(C(=S)Nc2ccccc2Cl)[C@@H]14`, the midpoint of inhibition, the IC50, lay at 43.6 µM.

Molecule `CCOC(=O)[C@]1(C)CCC[C@@]2(C)[C@@H]3CC[C@@]4(C)C[C@]3(CC[C@@H]21)c1cn(C(=S)Nc2ccc(F)cc2)nc14` gave an IC50 of 18.4 µM.

In the case of `CCOC(=O)[C@]1(C)CCC[C@@]2(C)[C@@H]3CC[C@@]4(C)C[C@]3(CC[C@@H]21)[C@@H]1CON(C(=S)Nc2ccc(Cl)cc2Cl)[C@@H]14`, the IC50 stood at 25.1 µM.

Molecule `CCOC(=O)[C@]1(C)CCC[C@@]2(C)[C@@H]3CC[C@@]4(C)C[C@]3(CC[C@@H]21)c1cn(C(=S)Nc2ccccc2)nc14` had an IC50 of 15.7 µM.

The molecule `CCOC(=O)[C@]1(C)CCC[C@@]2(C)[C@@H]3CC[C@@]4(C)C[C@]3(CC[C@@H]21)c1cn(C(=S)Nc2ccccc2[N+](=O)[O-])nc14` gave a half-maximal inhibitory concentration (IC50) of 16.4 µM.

On to `CCOC(=O)[C@]1(C)CCC[C@@]2(C)[C@@H]3CC[C@@]4(C)C[C@]3(CC[C@@H]21)[C@@H]1CON(C(=S)Nc2cccc([N+](=O)[O-])c2)[C@@H]14`, for which the half-inhibitory concentration (IC50) was over 50 µM.

As to `CCOC(=O)[C@]1(C)CCC[C@@]2(C)[C@@H]3CC[C@@]4(C)C[C@]3(CC[C@@H]21)[C@@H]1CON(C(=S)Nc2cccc(F)c2)[C@@H]14`, the half-maximal inhibitory concentration (IC50) is over 50 µM.

On to `CCOC(=O)[C@]1(C)CCC[C@@]2(C)[C@@H]3CC[C@@]4(C)C[C@]3(CC[C@@H]21)[C@@H]1CON(C(=S)Nc2ccc(Cl)cc2)[C@@H]14`, for which the 50% inhibitory concentration (IC50) is over 50 µM.

What is called IC50 is the concentration that gives 50% inhibition. Low values mean greater potency in that assay, high ones weaker potency in that assay.
